Assay results: patent US10563271B2, “High-level production of diacetyl in a metabolically engineered lactic acid bacterium” (Danmarks Tekniske Universitet, priority 2015, dated 2020)

Tests used:
[1] = test system: L. lactis strain CS4616m; assay: Metal ion enhancement of diacetyl production from acetolactate in stationary-phase CS4616m culture; set-up: species or system Lactococcus lactis subsp. cremoris
Description: Graphical presentation of diacetyl formation from acetolactate as a function of time (hr) when L. lactis strain CS4616m is cultured in the presence of increasing levels of either Fe^3+ (B); Fe^2+ (C); and Cu^2+ (D). The time point for adding the metal catalysts during the cultivation of L. Lactis strain CS4616m was at 9.8 h, which is indicated by the straight line in (A). Experiments were conducted in duplicate and error bars indicate standard deviations.
Glucose, lactate, and ethanol were detected and quantitated using the Ultimate 3000 high-pressure liquid chromatography system (Dionex, Sunnyvale, USA) equipped with a Aminex HPX-87H column (Bio-Rad, Hercules, USA) and a Shodex RI-101 detector (Showa Denko K.K., Tokyo, Japan). Pyruvate was detected and quantitated using the DAD-3000 diode array detector (Dionex, Sunnyvale, USA). The column oven temperature was set at 60° C. with a mobile phase of 5 mM H2SO4, and the flow rate was 0.5 ml/min. Acetoin and α-acetolactate were measured colorimetrically based on Westerfeld et al. (1945). Diacetyl concentration was determined as described by Benson et al (1996).
When the cells entered the stationary phase, different concentrations of these metal catalysts were added to the cultivation medium. […] The yield and productivity for diacetyl production was as high as 0.87 mol mol^−1 glucose and 0.58 g/L·h based on 4 h data.

[2] = test system: L. lactis strain CS4616m; assay: Inhibition of growth of CS4616m culture by metal ions or diacetyl; assay type: cell-based, Lactococcus lactis subsp. cremoris
Description: FIG. 5. Inhibitory effect of diacetyl on growth of L. lactis CS4616m. (A) Graphical presentation of cell growth of L. Lactis strain CS4616m, as measured by cell density (OD600 nm), in the presence of diacetyl (0-10 mM), which was added when the culture reached a cell density (OD600 nm) of 0.6. (B) Graphical presentation of cell growth of L. Lactis strain CS4616m, as measured by cell density (OD600 nm), and substrate/product profile in the presence of 10 mM Fe^3+ (added in the beginning of growth phase).
The observed high yields of diacetyl by cells of the L. lactis strain CS4616m are achieved by the addition of metal ions to the cells after they have reached the desired cell biomass. […] The final biomass of a culture grown in the presence of 10 mM Fe^3+ was only 3.3 (OD600 nm) (FIG. 5B) compared to 8.5 (OD600 nm) in the absence of a Fe^3+ supplement (FIG. 5A). […] In summary, for optimal diacetyl production, L. lactis strain CS4616m should be cultivated under aerobic conditions in the presence of a carbon source, e.g. glucose, in the presence of hemin until a sufficient biomass has been reached, followed by the addition of metal ions, preferably Fe^3+ or Cu^2+), and maintaining the aerobic conditions, in order for the accumulated acetolactate to be converted into diacetyl with high yield. The observed increase in diacetyl production by cells of the L. lactis strain CS4616m in response to Fe^3+, Fe^2+ and Cu^2+ is consistent with the finding that these metal ions serve as accelerators of the non-enzymatic oxidative decarboxylation flux from acetolactate to diacetyl. Optionally, once a sufficient biomass of the genetically modified Lactococcus lactis has been obtained following cultivation in the presence of a source of protoporphyrin IX or iron-containing porphyrin (e.g. hemin), the conversion of accumulated acetolactate can be accelerated by elevating the temperature of the culture or culture medium, for example to 60-65 degrees centigrade.

[3] = test system: L. lactis strain CS4616m; assay: Measurement of intracellular NADH and NAD+ (NAD+/NADH-Glo Assay); assay type: cell-based, Lactococcus lactis subsp. cremoris
Description: L. lactis cell culture harvested in the mid-exponential growth phase (OD600 nm=0.6) was frozen in liquid nitrogen and stored at −20° C. Extraction and quantification of NADH and NAD^+ were performed using the kit NAD^+/NADH-Glo™ Assay (Promega) according to the instructions. Intracellular NADH and NAD^+ concentrations were estimated by assuming that 1 g (dry weight) of cells corresponded to 1.67 ml of intracellular volume and the cell density of 1 OD600 nm corresponds to 0.35 g/I dry cell mass.
In the L. lactis respiration chain (FIG. 2A), electrons are transferred from NADH dehydrogenase (NoxAB), menaquinone to Cyt bd oxidase in the presence of hemin. The observed growth and NADH/NAD+ ratio of genetically engineered strain CS4616m induced by hemin is consistent with the theory that NADH generated by the glycolysis pathway can be replenished through respiration and that suitable hemin activators can be used to fine-tune respiration and restore cell growth in this strain.

[4] = test system: L. lactis strain CS4616m; assay: Respiration-dependent aerobic growth of L. lactis strain CS4616m at different hemin concentrations; assay type: cell-based, Lactococcus lactis subsp. cremoris
Description: L. lactis were grown aerobically at 30° C. in rich M17 broth (Terzaghi et al., 1975) supplemented with 2% (w/v) glucose and different concentrations of hemin in shaken 250 ml conical flasks. When required, antibiotics were added in the following concentrations: erythromycin: 200 μg/ml for E. coli and 5 μg/ml for L. lactis, tetracycline: 8 μg/ml for E. coli and 5 μg/ml for L. lactis, chloramphenicol: 20 μg/ml for E. coli and 5 μg/ml for L. lactis.
However, growth of the L. lactis strain was restored under aerobic conditions when hemin was present (FIG. 2B). The specific growth rate and final biomass density (OD600 nm) of the L. lactis strain increased in response to hemin concentrations of above 0.2 μg/ml, where a growth rate of 0.8 h^−1 and cell density of OD600 nm 8.5 was measured using a growth medium comprising 2% glucose, hemin levels were 1 μg/ml or above.

[5] = 10 or 20 mM, present in growth medium from the beginning of the growth phase
[6] = aerobic, growth medium 2% glucose, hemin 1 μg/ml or above

Compound: [Fe+3] [Fe^3+]
- diacetyl concentration ([1]; 20 mM Fe^2+ added at stationary phase, after 4 h): 78 mM
- diacetyl concentration ([1]; 30 mM Fe^3+ added at stationary phase, after 2 h, 108 mM glucose): 85 mM
- diacetyl concentration ([1]; 30 mM Fe^3+ added at stationary phase, after 4 h, 108 mM glucose): 95 mM
- productivity for diacetyl production ([1]; 30 mM Fe^3+, based on 4 h data): 0.58 g/L·h
- yield for diacetyl production ([1]; 30 mM Fe^3+, based on 4 h data): 0.87 mol mol^−1 glucose
- final biomass ([2]; 10 mM Fe^3+ from beginning of growth, 8.5 without Fe^3+ supplement): 3.3 OD600 nm
- cell growth [2, 5]: inhibited growth

Compound: CC(=O)C(C)=O [diacetyl]
- cell growth ([2]; diacetyl (0-10 mM) added at OD600 nm of 0.6): inhibit cell growth

Compound: hemin
- NADH/NAD+ ratio ([3]; 0.3 μg/ml hemin): 0.07
- intracellular NAD+ concentration ([3]; 0.3 μg/ml hemin): 0.25 mM
- NADH/NAD+ ratio ([3]; 1 μg/ml hemin): 0.03
- intracellular NAD+ concentration ([3]; 1 μg/ml hemin): 0.47 mM
- cell density [4, 6]: 8.5 OD600 nm
- growth rate [4, 6]: 0.8 h⁻¹
- effect on cell growth ([4]; elevated hemin, circa 10 μg/ml or above (data not shown)): significant negative effect on cell growth
- final cell biomass and NADH/NAD+ ratio ([4]; hemin above 1 μg/ml (e.g. 5 μg/ml)): did not further increase
- growth of the strain under aerobic conditions ([4]; hemin present): restored

Compound: [Cu+2] [Cu^2+]
- diacetyl concentration ([1]; 30 mM Cu^2+ added at stationary phase, after 1 h): 78 mM
- productivity for diacetyl production ([1]; 30 mM Cu^2+, after 1 h): 0.619 g/L·h
- cell growth [2, 5]: inhibited growth
- cell growth ([2]; metal ion added during the growth phase): totally abolished cell growth
